Reference: article PMC6192554, “In vitro toxicity and efficacy of verdinexor, an exportin 1 inhibitor, on opportunistic viruses affecting immunocompromised individuals” (PLoS ONE, 2018)

Assays:
[1] = system: Epstein-Barr virus (EBV) Akata strain; test: EBV primary assay, DNA hybridization in induced Akata cells; assay type: cell-based
Experimental: EBV Akata strain was assayed in Akata cells (John Sixbey, LSU) latently infected with EBV (and therefore oncogenic). Cells were maintained in RPMI 1640, (Mediatech) with 10% FBS (Hyclone), L-glutamine, penicillin and gentamicin.
For Primary assay, Akata cells latently infected with EBV were induced to undergo lytic infection by addition of 50μg/ml of a goat anti-human IgG [16] and a dose-range of verdinexor (0.032 to 100 μM) was added for 72hr. Denaturation buffer was added and an aliquot aspirated through an Immobilon nylon membrane (Millipore, Bedford, MA). Dried membranes were equilibrated in DIG Easy Hyb solution (Roche Diagnostics, Indianapolis, IN) at 56°C. Specific DIG-labeled probes for EBV (S1 Table). (Roche Diagnostics). Membranes with EBV DNA were hybridized overnight followed by washes in 0.2× SSC and 0.1× SSC both with 0.1% SDS. Detection of specifically bound DIG probe was performed with anti-DIG antibody (Roche Diagnostics). An image of the photographic film was captured and quantified with QuantityOne software (Bio-Rad), and the EC50 were interpolated.

[2] = Cytotoxicity in BCBL-1 cells (CellTiter-Glo); assay type: cell-based; conditions: human
Experimental: (§1) Cytotoxicity assays: Concurrent assessment of cytotoxicity was also performed for each study in the same cell line and with the same compound exposure. For KSHV, cell viability was assessed with the CellTiter-Glo Luminescent Cell Viability Assay (Promega) using manufacturer’s protocol. Luminescence was quantified on a luminometer. Standard methods were used to calculate the 50% cytotoxic level (CC50).

[3] = Cytotoxicity in Akata cells (CellTiter-Glo), concurrent with EBV assays; assay type: cell-based; conditions: human
Experimental: as §1, with “(CC50). Cytotoxicity assay was performed in a manner analogous to KSHV (see above).” for “(CC50).”

[4] = Cytotoxicity in HEK293 cells (cell counter viability); assay type: cell-based; conditions: human, HPV-11 primary screen
Experimental: Cytotoxicity assays: Concurrent assessment of cytotoxicity was also performed for each study in the same cell line and with the same compound exposure.
HPV cytotoxicity assay was performed at the time of viral harvest by scoring cells in a BioRad Automatic Cell Counter for cell viability.

[5] = system: Murine CMV strain Smith; test: MCMV plaque reduction assay in MEF cells; assay type: cell-based, murine cytomegalovirus; conditions: primary screen
Experimental: Murine CMV strain Smith was obtained from Earl Kern and assayed in mouse embryonic fibroblast cells (MEF) immortalized by telomerization. Guinea pig CMV strain 22122 was obtained from the ATCC and assayed in primary guinea pig lung cells (GPL). Both MEF and GPL cells were prepared at the UAB tissue procurement facility with IRB approval as previously described.
Plaque reduction assays for MCMV, GPCMV were performed on monolayers of GPL (GPCMV) or MEF (MCMV) cells prepared in six-well plates and incubated at 37°C for 2d to allow the cells to reach confluency. Media was then aspirated from the wells and 0.2ml of virus was added to each of three wells to yield 20–30 plaques in each well. The virus was allowed to adsorb to the cells for 1h and the plates were agitated every 15min. Compounds were diluted in assay media consisting of MEM with Earl’s salts supplemented with 2% FBS, L-glutamine, penicillin, and gentamycin. Solutions ranging from 0.0032–10μM (primary) or 0.032–100μM (secondary) were added to triplicate wells and the plates were incubated for various times, depending on the virus used. For MCMV and GPCMV, the cell monolayer was stained with 1% neutral red solution for 4h at which time the stain was aspirated and cells were washed with PBS. […]

[6] = system: HPV-18; test: HPV-18 DNA amplification in organotypic raft culture of PHKs (qPCR); assay type: cell-based, human papillomavirus
Experimental: HPV-11 and -18 were tested in HEK293 cells and primary human keratinocytes (PHK), respectively. PHKs were isolated from neonatal foreskins following circumcision according to IRB-approved protocols at UAB. They were grown in keratinocyte serum-free medium (Life Technologies) with mitomycin C-treated J2 feeder cells (Swiss 3T3 J2 fibroblasts; Elaine Fuchs, Rockefeller University). HEK 293 cells were maintained under standard conditions.
For secondary assays, the amplification of HPV-18 DNA was determined in an organotypic squamous epithelial raft culture of PHKs. Whole genomic HPV-18 plasmids were generated in plasmid-transfected PHKs and developed into organotypic cultures as described. Based on the results of a 3-day toxicity assay, concentrations of test compound were added to a subset of raft cultures from day 6 through day 13 when the cultures were harvested. Similarly treated normal PHK raft cultures were also prepared to assess toxicity of uninfected tissue. One set of cultures were fixed in 10% buffered formalin, paraffin embedded and sectioned for in situ assay. Sections were stained with hematoxylin and eosin. Total DNA harvest from unfixed raft cultures was used to determine the HPV-18 copy number/per cell by qPCR. Inhibition was expressed as % of viral DNA copies relative to the untreated cultures.

[7] = system: HIV; set-up: method as in PMID 3025240; conditions: PBMCs from healthy donors; read-out: EC50, anti-HIV activity; cited from earlier work
[8] = system: Rev-GFP fusion; set-up: method as in PMID 3025240; conditions: read-out: EC50, forced nuclear retention of Rev-GFP fusion; cited from earlier work
[9] = molecular target: histamine H1 receptor (Homo sapiens, UniProt P35367); test: Histamine H1 receptor functional activity assay, antagonist; assay type: biochemical; conditions: Study No. KS-1017, read-out: IC50 (50% inhibitory concentration)
Chain of histamine H1 receptor (P35367 whole entry, species assumed): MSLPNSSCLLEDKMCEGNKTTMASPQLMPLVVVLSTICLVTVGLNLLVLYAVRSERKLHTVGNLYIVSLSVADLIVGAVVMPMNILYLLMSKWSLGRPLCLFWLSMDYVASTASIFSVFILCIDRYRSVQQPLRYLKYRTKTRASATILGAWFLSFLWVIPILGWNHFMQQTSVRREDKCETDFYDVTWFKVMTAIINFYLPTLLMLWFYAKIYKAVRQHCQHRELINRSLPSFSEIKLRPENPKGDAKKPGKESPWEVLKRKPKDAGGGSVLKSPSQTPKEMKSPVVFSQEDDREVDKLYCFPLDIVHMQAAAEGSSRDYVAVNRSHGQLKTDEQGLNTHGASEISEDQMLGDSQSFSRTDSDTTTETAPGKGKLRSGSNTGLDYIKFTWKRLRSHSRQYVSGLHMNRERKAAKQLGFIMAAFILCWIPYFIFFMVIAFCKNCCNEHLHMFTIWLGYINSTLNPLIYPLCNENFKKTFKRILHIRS

[10] = Serum protein binding; assay type: in vitro ADME; conditions: human, humans
Experimental: Serum concentrations with Verdinexor have been previously established in in vivo models of influenza in both mice and ferrets. In mice receiving 10mg/kg and ferrets receiving 5mg/kg, max plasma concentration of verdinexor was approximately 1200 (ng/mL) however, the half life in mice was extended (6 hours) as compared to that of ferrets (2 hours). Serum protein binding of verdinexor in humans is 98.4%. […] A Phase 1, Randomized, Double-Blind, Placebo-Controlled, Sequential, Dose-Escalating Trial to Evaluate the Safety and Tolerability of Oral Verdinexor (KPT-335) in Healthy Adult Subjects was conducted in Nucleus Network, Melbourne, Victoria, Australia [ClinicalTrials.gov: NCT02431364]. No study results are currently posted for this study. Furthermore, a clinical study was submitted to the USA FDA on IND#122718. This phase 1a, Randomized, Double-Blind, Placebo-Controlled, Sequential, Dose-Escalating Trial of Single and Multi-Dose oral verdinexor (KPT-335) to Evaluate the Safety and Tolerability in Healthy Elderly Volunteers is yet to be initiated and recruit subjects.

For `O=C(C=Cn1cnc(-c2cc(C(F)(F)F)cc(C(F)(F)F)c2)n1)NNc1ccccn1` (stereo in doubt) [verdinexor, (E)-3-[3-[3,5-bis(trifluoromethyl)phenyl]-1,2,4-triazol-1-yl]-N'-pyridin-2-ylprop-2-enehydrazide], the “SI (Selectivity Index, CC50/EC50)” value ([1]; EBV, primary screen, DNA hybridization) was under 1, the EC50 ([1]; human gammaherpesvirus 4, Akata) was over 480 nM and the CC50 ([2]; KSHV primary screen) was 2760 nM. It also gave a CC50 ([2]; KSHV secondary screen) of 1400 nM, a CC50 ([3]; EBV assays) of under 680 nM and a CC50 ([3]; EBV primary screen) of 680 nM. It also gave a CC50 ([3]; EBV secondary screen) of 340 nM, a CC50 [4] of 89600 nM and an EC50 [5] of 190 nM. For the same compound, the EC50 ([6]; Human papillomavirus) was 8300 nM, the “efficacy against HPV-18” value ([6]; secondary screen, PHKs) was “did not show efficacy” and the EC50 [7] was 116 ± 54 nM. For the same compound, the EC50 [8] was 160 nM, the IC50 [9] was over 10000 nM and the fraction unbound [10] was 0.016.
